Measurements: paper PMC9271885 (eBioMedicine, 2022)
Values joined by “and” are separate entries in the source; they are usually repeats but may differ in a detail not shown here. Equal entries are not always repeated.

Columns and labels:
[1] = Clinical course of the disease in infected hamsters (normalized weight, clinical signs); format: in vivo, Syrian hamsters; conditions: Favipiravir IP 926mg/kg/day BID, inoculum 104 TCID50, sacrifice day 3, Figure 3, individual animals
Experimental: Three-week-old female Syrian hamsters were provided by Janvier Labs (SPF status). Animals were maintained in ISOcage P - Bioexclusion System (Techniplast) with unlimited access to water/food and 14h/10h light/dark cycle. A wooden gnawing block and extra bedding material was provided as cage enrichment. Animals were weighed and monitored daily for the duration of the study to detect the appearance of any clinical signs of illness/suffering. General anesthesia was obtained with isoflurane (Isoflurin®, Axience). Euthanasia, which was also realized under general anesthesia, was performed by cervical dislocation.
Groups of 6 hamsters were intranasally infected with 10^4 TCID50 of virus. a Experimental timeline. b, f, j Viral replication in lung based on infectious titers (measured using a TCID50 assay) expressed in TCID50/g of lung (n=6 animals/group). c, g, k Viral replication in lung based on viral RNA yields (measured using an RT-qPCR assay) expressed in viral genome copies/g of lung (n=6 animals/group). d, h, l Plasma viral loads (measured using an RT-qPCR assay) are expressed in viral genome copies/mL of plasma (the dotted line indicates the detection threshold of the assay) (n=6 animals/group). e, i, m Clinical course of the disease (n=6 animals/group). Normalized weight at day n was calculated as follows: % of initial weight of the animal at day n. Data represent mean ± SD (Details in Supplementary Data 2).

[2] = system: SARS-CoV-2; test: Hamster model of SARS-CoV-2 infection, oral NTZ treatment (lung infectious titers, lung viral RNA yields, plasma viral loads); format: in vivo, Syrian hamsters; parameters: Lung Infectious titers / Plasmatic viral RNA yields / Lung Viral RNA yields: unit not given here
[3] = FVP 926mg/kg/day BID intraperitoneally, 3 dpi
[4] = Favipiravir IP 926mg/kg/day BID, inoculum 104 TCID50, sacrifice day 3, Figure 3, individual animals, 926 mg/kg/day

NC(=O)c1nc(F)c[nH]c1=O [FVP, favipiravir]
Normalized weights Day 0 [1]: 100 | Normalized weights Day 1 ([1]; 926 mg/kg/day): 104.7 and 102.8 and 102.5 and 104.5 and 103.7 and 104.9 | Normalized weights Day 2 ([1]; 926 mg/kg/day): 101.3 and 102.5 and 100.8 and 100.6 and 94.2 and 104.4 | Normalized weights Day 3 ([1]; 926 mg/kg/day): 97.1 and 105.0 and 92.2 and 91.0 and 105.5 and 105.7 | infectious titers in clarified lung homogenates vs untreated animals [2, 3]: significant reductions | viral RNA yields in clarified lung homogenates vs untreated animals [2, 3]: significant reductions | Lung Infectious titers [2, 4]: 6.755 and 6.354 and 7.035 and 6.515 and 6.109 and 6.625 | Lung Viral RNA yields [2, 4]: 6.542 and 6.443 and 6.907 and 6.536 and 6.197 and 6.702 | Plasmatic viral RNA yields ([2]; Favipiravir IP 926mg/kg/day BID, inoculum 104 TCID50, sacrifice day 3, Figure 3, individual animals, ¤ : Detection threshold at 1000 cp/ml, 926 mg/kg/day): 3.034 and 2.169 and 2.511 and 5.618
